Data from the supplement of paper PMC10307832.

Tests used:
Assay in all cases: relative viability (nuclei count vs DMSO), 5 days (fraction); higher = more cells survive
Apatinib + Linsitinib = compound: N#CC1(c2ccc(NC(=O)c3cccnc3NCc3ccncc3)cc2)CCCC1 [Apatinib] + C[C@]1(O)C[C@@H](c2nc(-c3ccc4ccc(-c5ccccc5)nc4c3)c3c(N)nccn32)C1 [Linsitinib] (partner 1 µM)
Summary of the method: (§1)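 A single step with final 0.05% Triton X-100, 1% formaldehyde and 1 ug/ml Hoechst fixed the cells and stained nuclei 5 days after treatment. Lung cancer cell lines in 1536-well plates had been treated by pin tool the day after seeding with one drug alone or a fixed anchor-drug dose plus five library-drug doses (not always all listed) in √10 steps, and nuclei were counted on 4× images. Relative viability is the ratio of nuclei in treated wells to nuclei in vehicle wells, taken as the median of duplicate plates.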

Metformin + Navitoclax = compound: CN(C)C(=N)NC(=N)N [Metformin] + CC1(C)CCC(c2ccc(Cl)cc2)=C(CN2CCN(c3ccc(C(=O)NS(=O)(=O)c4ccc(N[C@H](CCN5CCOCC5)CSc5ccccc5)c(S(=O)(=O)C(F)(F)F)c4)cc3)CC2)C1 [Navitoclax] (partner 0.5 µM)
Summary of the method: as §1

Apatinib + Crizotinib = compound: N#CC1(c2ccc(NC(=O)c3cccnc3NCc3ccncc3)cc2)CCCC1 [Apatinib] + C[C@@H](Oc1cc(-c2cnn(C3CCNCC3)c2)cnc1N)c1c(Cl)ccc(F)c1Cl [Crizotinib] (partner 1 µM)
Summary of the method: as §1

Metformin + Palbociclib = compound: CN(C)C(=N)NC(=N)N [Metformin] + CC(=O)c1c(C)c2cnc(Nc3ccc(N4CCNCC4)cn3)nc2n(C2CCCC2)c1=O [Palbociclib] (partner 0.5 µM)
Summary of the method: as §1

Row | Cell Line | relative viability (Apatinib + Linsitinib; first compound 0.08 µM) | relative viability (Apatinib + Linsitinib; first compound 0.253 µM) | relative viability (Apatinib + Linsitinib; first compound 0.8 µM) | relative viability (Apatinib + Linsitinib; first compound 2.53 µM) | relative viability (Apatinib + Linsitinib; first compound 8 µM) | relative viability (Metformin + Navitoclax; first compound 10 µM) | relative viability (Metformin + Navitoclax; first compound 31.62 µM) | relative viability (Metformin + Navitoclax; first compound 100 µM) | relative viability (Metformin + Navitoclax; first compound 316.23 µM) | relative viability (Metformin + Navitoclax; first compound 1000 µM) | relative viability (Apatinib + Crizotinib; first compound 0.08 µM) | relative viability (Apatinib + Crizotinib; first compound 0.253 µM) | relative viability (Apatinib + Crizotinib; first compound 0.8 µM) | relative viability (Apatinib + Crizotinib; first compound 2.53 µM) | relative viability (Apatinib + Crizotinib; first compound 8 µM) | relative viability (Metformin + Palbociclib; first compound 10 µM) | relative viability (Metformin + Palbociclib; first compound 31.62 µM) | relative viability (Metformin + Palbociclib; first compound 100 µM) | relative viability (Metformin + Palbociclib; first compound 316.23 µM) | relative viability (Metformin + Palbociclib; first compound 1000 µM)
1 | PC-14 | 0.988 | 1.03 | 0.86 | 0.95 | 1.02 | 0.968 | 0.958 | 0.998 | 1 | 0.989 | 0.925 | 0.99 | 0.841 | 0.863 | 0.915 | 0.533 | 0.586 | 0.547 | 0.461 | 0.539
2 | HCC-78 | 0.631 | 0.395 | 0.536 | 0.405 | 0.401 | 0.994 | 1.17 | 1.01 | 1 | 1.06 | 0.328 | 0.325 | 0.326 | 0.347 | 0.346 | 0.479 | 0.507 | 0.452 | 0.505 | 0.483
3 | NCI-H322M | 1.13 | 0.878 | 0.978 | 0.974 | 0.842 | 1.19 | 1.28 | 1.02 | 1.14 | 1.19 | 0.917 | 0.925 | 0.946 | 0.825 | 0.776 | 0.54 | 0.495 | 0.512 | 0.551 | 0.488
4 | NCI-H2023 | 0.816 | 0.886 | 0.615 | 0.683 | 0.607 |  | 0.973 | 0.876 |  | 0.567 | 0.717 | 0.737 | 0.69 | 0.699 | 0.643 | 0.321 | 0.341 | 0.3 | 0.285 | 0.237
5 | NCI-H1651 | 1.13 | 1.13 | 0.895 | 0.91 | 0.784 | 1.14 | 1.38 | 1.27 | 1.21 | 1.46 | 0.916 | 0.86 | 0.84 | 0.8 | 0.733 | 0.556 | 0.681 | 0.652 | 0.519 | 0.605
6 | HCC-15 | 1.02 | 0.937 | 0.813 | 0.878 | 0.878 | 0.686 | 0.726 | 0.719 | 0.618 | 0.699 | 0.85 | 0.814 | 0.811 | 0.799 | 0.717 | 0.726 | 0.807 | 0.716 | 0.562 | 0.831
7 | NCI-H3122 | 0.996 | 1.03 | 0.983 | 1.05 | 0.911 | 0.937 | 0.955 | 0.969 | 0.933 | 0.89 | 0.3 | 0.246 | 0.256 | 0.27 | 0.328 | 0.174 | 0.188 | 0.228 | 0.191 | 0.184
